Test results reported in ChEMBL document CHEMBL1201862, “PubChem BioAssay data set” (2004).
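Test compounds were applied to cells in 96-well plates for 48 hours at 5 doses. GI50: concentration for 50% inhibition of growth.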 Calls of active or inactive are those of the source. Rule as the data show it: active = GI50 up to about 1.1 µM and inactive = higher.

Tests used:
Test in all cases: NCI anticancer screen, dose series, 48 h
[1] = test system: NCI-H522
[2] = test system: OVCAR-3
[3] = test system: K562
[4] = test system: SK-MEL-2
[5] = test system: U-251
[6] = test system: OVCAR-8
[7] = test system: DU-145
[8] = test system: SK-OV-3
[9] = test system: A549
[10] = test system: SF-295
[11] = test system: LOX IMVI
[12] = test system: MDA-MB-231
[13] = test system: HOP-62
[14] = test system: NCI-H460
[15] = test system: HCC 2998
[16] = test system: MOLT-4
[17] = test system: NCI/ADR-RES
[18] = test system: MCF7
[19] = test system: UACC-62
[20] = test system: ACHN

SMILES	GI50 [1]	GI50 [2]	GI50 [3]	GI50 [4]	GI50 [5]	GI50 [6]	GI50 [7]	GI50 [8]	GI50 [9]	GI50 [10]	GI50 [11]	GI50 [12]	GI50 [13]	GI50 [14]	GI50 [15]	GI50 [16]	GI50 [17]	GI50 [18]	GI50 [19]	GI50 [20]
C[N+](C)(C)CC(=O)N/N=C(\Cc1nc2ccc([N+](=O)[O-])cc2nc1O)C(=O)Nc1nc2ccc([N+](=O)[O-])cc2s1	13.3 µM (inactive)	31.8 µM (inactive)	86.3 µM (inactive)	28.1 µM (inactive)	56.6 µM (inactive)	74.3 µM (inactive)	39.4 µM (inactive)	34 µM (inactive)	36.3 µM (inactive)	51.8 µM (inactive)	35.6 µM (inactive)	> 100 µM (inactive)	57.9 µM (inactive)	23.4 µM (inactive)	36.9 µM (inactive)	49.2 µM (inactive)	63.4 µM (inactive)	29.4 µM (inactive)	62.2 µM (inactive)	52.2 µM (inactive)
CCCCCC/C=C\CCCCCCCCCC1=CC(=O)C=C(OC)C1=O [IRISQUINONE A]	2 µM (inactive)	3.98 µM (inactive)	0.753 µM (active)	4.34 µM (inactive)	0.713 µM (active)	0.593 µM (active)	5.62 µM (inactive)	4.36 µM (inactive)	4.06 µM (inactive)	3.6 µM (inactive)	4.06 µM (inactive)	4.36 µM (inactive)	3.48 µM (inactive)	2.72 µM (inactive)	8.24 µM (inactive)	3.79 µM (inactive)	3.8 µM (inactive)	4.46 µM (inactive)	4.05 µM (inactive)	3.18 µM (inactive)
OC1C2[C@@H](O)CCCN2C[C@@H](O)[C@H]1O (stereo not given in full)	71.1 µM (inactive)	> 100 µM (inactive)	> 100 µM (inactive)	> 100 µM (inactive)	> 100 µM (inactive)	> 100 µM (inactive)	> 100 µM (inactive)	> 100 µM (inactive)	> 100 µM (inactive)	> 100 µM (inactive)	> 100 µM (inactive)	> 100 µM (inactive)	> 100 µM (inactive)	> 100 µM (inactive)	> 100 µM (inactive)	> 100 µM (inactive)	> 100 µM (inactive)	> 100 µM (inactive)	> 100 µM (inactive)	> 100 µM (inactive)
Cc1nc2c(o1)C(=O)c1ccccc1/C2=N/c1ccc(N2CCOCC2)cc1	2.48 µM (inactive)	1.69 µM (inactive)	3.28 µM (inactive)	2.75 µM (inactive)	3.52 µM (inactive)	2.81 µM (inactive)	3.31 µM (inactive)	37.8 µM (inactive)	6.19 µM (inactive)	2.52 µM (inactive)	2.01 µM (inactive)	2.7 µM (inactive)	8.85 µM (inactive)	11.1 µM (inactive)	34.1 µM (inactive)	4.91 µM (inactive)	2.88 µM (inactive)	2.77 µM (inactive)	2.03 µM (inactive)	3.61 µM (inactive)
Cc1[nH]c(/C=C2\C(=O)Nc3ccccc32)c(C)c1CCC(=O)O [ORANTINIB]	34.1 µM (inactive)	22.1 µM (inactive)	36.4 µM (inactive)	16.8 µM (inactive)	59.4 µM (inactive)	40.7 µM (inactive)	31.5 µM (inactive)	30.1 µM (inactive)	33.9 µM (inactive)	32.5 µM (inactive)	28.4 µM (inactive)	37.9 µM (inactive)	29.4 µM (inactive)	31 µM (inactive)	35.6 µM (inactive)	30.1 µM (inactive)	37.3 µM (inactive)	28.1 µM (inactive)	32.2 µM (inactive)	30.5 µM (inactive)
